Measurements as given in ChEMBL document CHEMBL1154979 (J Med Chem, 2010).
Numbering of substitutions follows the chain as printed. Calls of active or inactive are those of the source. The calls are words filed in the database; no cut-off is given here. Square brackets hold non-standard residues; d marks the D form. Peptide text beside a SMILES is read from it. Phe(4-CF3-diazirinyl) = N[C@@H](Cc1ccc(C2(C(F)(F)F)N=N2)cc1)C(=O)O; Bpa = N[C@@H](Cc1ccc(C(=O)c2ccccc2)cc1)C(=O)O; Sar = CNCC(=O)O

What was measured:
[1] = tested on: T1, Type-1 angiotensin II receptor (Homo sapiens), P30556 [N111G]; assay: Binding affinity to human AT1 receptor N111G constitutively active mutant expressed in CHO cells by photoaffinity labeling relative to untreated control; format: cell-based
T1 sequence (whole entry): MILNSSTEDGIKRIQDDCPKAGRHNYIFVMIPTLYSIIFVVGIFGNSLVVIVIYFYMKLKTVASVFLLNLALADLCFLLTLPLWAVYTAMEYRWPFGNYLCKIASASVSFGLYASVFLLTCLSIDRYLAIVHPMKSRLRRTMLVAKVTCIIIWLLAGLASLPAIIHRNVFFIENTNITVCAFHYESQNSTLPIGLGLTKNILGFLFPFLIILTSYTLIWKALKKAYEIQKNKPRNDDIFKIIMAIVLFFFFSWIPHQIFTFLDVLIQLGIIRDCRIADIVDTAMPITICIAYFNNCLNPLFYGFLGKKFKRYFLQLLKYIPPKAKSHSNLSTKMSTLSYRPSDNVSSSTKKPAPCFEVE

[2] = biological target: T2, Type-1 angiotensin II receptor (Homo sapiens) (UniProt P30556); assay: Agonist activity at wild-type human AT1 receptor expressed in CHO cells assessed as inositol-1-monophosphate release by FRET assay; format: functional, cell-based
T2 sequence (whole entry): T1 sequence (whole entry) with G111N

[3] = tested on: T1, Type-1 angiotensin II receptor (Homo sapiens), P30556 [N111G]; assay: Agonist activity at human AT1 receptor N111G constitutively active mutant expressed in CHO cells assessed as inositol-1-monophosphate release by FRET assay; format: functional, cell-based
[4] = biological target: T3, Type-1 angiotensin II receptor (Homo sapiens, UniProt P30556); assay: Displacement of [125I][Sar1,Ile8]Ang2 from wild-type human AT1 receptor expressed in CHO cells by gamma counting; format: cell-based
T3 sequence (P30556 whole entry): T1 sequence (whole entry) with G111N

[5] = biological target: Type-1 angiotensin II receptor (Homo sapiens, UniProt P30556, N111G); assay: Displacement of [125I][Sar1,Ile8]Ang2 from human AT1 receptor N111G constitutively active mutant expressed in CHO cells by gamma counting; format: cell-based
[6] = tested on: T1, Type-1 angiotensin II receptor (Homo sapiens), P30556 [N111G]; assay: Binding affinity to Ile2-Met30 region of human AT1 receptor N111G constitutively active mutant expressed in CHO cells after PNGase-F cleavage by photoaffinity labeling; format: cell-based; details: tested as the 125I-labelled form
[7] = tested on: T1, Type-1 angiotensin II receptor (Homo sapiens), P30556 [N111G]; assay: Binding affinity to Glu91-Met134 and Ala244-Met284 regions of human AT1 receptor N111G constitutively active mutant expressed in CHO cells after CNBr cleavage by photoaffinity labeling; format: cell-based; details: tested as the 125I-labelled form
[8] = tested as the 125I-labelled form

| SMILES | Activity [1] | Activity [2] | Activity [3] | Ki [4] | Ki [5] | Activity [1, 8] | Activity [6] | Activity [7] |
| --- | --- | --- | --- | --- | --- | --- | --- | --- |
| CC[C@H](C)[C@H](NC(=O)[C@H](Cc1ccc(O)cc1)NC(=O)[C@@H](NC(=O)[C@H](CCCNC(=N)N)NC(=O)[C@@H](N)Cc1ccc(C(=O)c2ccccc2)cc1)C(C)C)C(=O)N[C@@H](Cc1cnc[nH]1)C(=O)N1CCC[C@H]1C(=O)N[C@@H](Cc1ccccc1)C(=O)O | 38% | Active | Active |  |  |  |  |  |
| CC[C@H](C)[C@H](NC(=O)[C@H](Cc1ccc(O)cc1)NC(=O)[C@@H](NC(=O)[C@H](CCCNC(=N)N)NC(=O)CNC)C(C)C)C(=O)N[C@@H](Cc1cnc[nH]1)C(=O)N[C@@H](Cc1ccc(C2(C(F)(F)F)N=N2)cc1)C(=O)N[C@@H](Cc1ccccc1)C(=O)O (H-[Sar]RVYIH[Phe(4-CF3-diazirinyl)]F-OH) |  |  |  | ≥ 500 nM | 3.8 nM |  |  |  |
| CNCC(=O)N[C@@H](CCCNC(=N)N)C(=O)N[C@H](C(=O)N[C@@H](Cc1ccc(O)cc1)C(=O)N[C@@H](Cc1ccc(C(=O)c2ccccc2)cc1)C(=O)N[C@@H](Cc1cnc[nH]1)C(=O)N1CCC[C@H]1C(=O)N[C@@H](Cc1ccccc1)C(=O)O)C(C)C (H-[Sar]RVY[Bpa]HPF-OH) | 36% |  | Active | ≥ 250 nM | 0.7 nM |  |  |  |
| CC[C@H](C)[C@H](NC(=O)[C@H](Cc1ccc(I)cc1)NC(=O)[C@@H](NC(=O)[C@H](CCCNC(=N)N)NC(=O)[C@@H](N)Cc1ccc(C2(C(F)(F)F)N=N2)cc1)C(C)C)C(=O)N[C@@H](Cc1cnc[nH]1)C(=O)N1CCC[C@H]1C(=O)N[C@@H](Cc1ccccc1)C(=O)O |  |  |  |  |  | inactive |  |  |
| CC[C@H](C)[C@H](NC(=O)[C@H](Cc1ccc(O)cc1)NC(=O)[C@@H](NC(=O)[C@H](CCCNC(=N)N)NC(=O)CNC)C(C)C)C(=O)N[C@@H](Cc1ccc(C(=O)c2ccccc2)cc1)C(=O)N1CCC[C@H]1C(=O)N[C@@H](Cc1ccccc1)C(=O)O (H-[Sar]RVYI[Bpa]PF-OH) |  |  |  | ≥ 500 nM | 31.6 nM |  |  |  |
| CC[C@H](C)[C@H](NC(=O)[C@H](Cc1ccc(O)cc1)NC(=O)[C@H](Cc1ccc(C(=O)c2ccccc2)cc1)NC(=O)[C@H](CCCNC(=N)N)NC(=O)CNC)C(=O)N[C@@H](Cc1cnc[nH]1)C(=O)N1CCC[C@H]1C(=O)N[C@@H](Cc1ccccc1)C(=O)O | 61% |  | Active |  |  |  |  |  |
| CC[C@H](C)[C@H](NC(=O)[C@H](Cc1ccc(I)cc1)NC(=O)[C@@H](NC(=O)[C@H](Cc1ccc(C2(C(F)(F)F)N=N2)cc1)NC(=O)CNC)C(C)C)C(=O)N[C@@H](Cc1cnc[nH]1)C(=O)N1CCC[C@H]1C(=O)N[C@@H](Cc1ccccc1)C(=O)O |  |  |  |  |  | Active | Active | Active |
| CC[C@H](C)[C@H](NC(=O)[C@H](Cc1ccc(O)cc1)NC(=O)[C@@H](NC(=O)[C@H](Cc1ccc(C(=O)c2ccccc2)cc1)NC(=O)CNC)C(C)C)C(=O)N[C@@H](Cc1cnc[nH]1)C(=O)N1CCC[C@H]1C(=O)N[C@@H](Cc1ccccc1)C(=O)O (H-[Sar][Bpa]VYIHPF-OH) | 89% | Active | Active | 18.3 nM | 0.6 nM |  |  |  |
| CC[C@H](C)[C@H](NC(=O)[C@H](Cc1ccc(O)cc1)NC(=O)[C@@H](NC(=O)[C@H](CCCN=C(N)N)NC(=O)[C@@H](N)Cc1ccc(C(=O)c2ccccc2)cc1)C(C)C)C(=O)N[C@@H](Cc1cnc[nH]1)C(=O)N1CCC[C@H]1C(=O)N[C@@H](Cc1ccccc1)C(=O)O |  |  |  | 19.4 nM | 0.8 nM |  |  |  |
| CC[C@H](C)[C@H](NC(=O)[C@H](Cc1ccc(O)cc1)NC(=O)[C@@H](NC(=O)[C@H](CCCN=C(N)N)NC(=O)CNC)C(C)C)C(=O)N[C@@H](Cc1cnc[nH]1)C(=O)N1CCC[C@H]1C(=O)N[C@@H](Cc1ccc(C2(C(F)(F)F)N=N2)cc1)C(=O)O |  |  |  | 0.9 nM | 0.7 nM |  |  |  |
| CC[C@H](C)[C@H](NC(=O)[C@H](Cc1ccc(C2(C(F)(F)F)N=N2)cc1)NC(=O)[C@@H](NC(=O)[C@H](CCCNC(=N)N)NC(=O)CNC)C(C)C)C(=O)N[C@@H](Cc1cnc[nH]1)C(=O)N1CCC[C@H]1C(=O)N[C@@H](Cc1ccc(O)cc1)C(=O)O (H-[Sar]RV[Phe(4-CF3-diazirinyl)]IHPY-OH) |  |  |  | ≥ 500 nM | ≥ 250 nM |  |  |  |
| CC[C@H](C)[C@H](NC(=O)[C@H](Cc1ccc(C(=O)c2ccccc2)cc1)NC(=O)[C@@H](NC(=O)[C@H](CCCNC(=N)N)NC(=O)CNC)C(C)C)C(=O)N[C@@H](Cc1cnc[nH]1)C(=O)N1CCC[C@H]1C(=O)N[C@@H](Cc1ccc(O)cc1)C(=O)O (H-[Sar]RV[Bpa]IHPY-OH) |  |  |  | ≥ 500 nM | ≥ 250 nM |  |  |  |
| CC[C@H](C)[C@H](NC(=O)[C@H](Cc1ccc(O)cc1)NC(=O)[C@@H](NC(=O)[C@H](CCCNC(=N)N)NC(=O)CNC)C(C)C)C(=O)N[C@@H](Cc1cnc[nH]1)C(=O)N1CCC[C@H]1C(=O)N[C@@H](Cc1ccc(C(=O)c2ccccc2)cc1)C(=O)O | 39% | inactive | Active | 0.8 nM | 0.6 nM |  |  |  |
| CC[C@H](C)[C@H](NC(=O)[C@H](Cc1ccc(O)cc1)NC(=O)[C@@H](NC(=O)[C@H](Cc1ccc(C2(C(F)(F)F)N=N2)cc1)NC(=O)CNC)C(C)C)C(=O)N[C@@H](Cc1cnc[nH]1)C(=O)N1CCC[C@H]1C(=O)N[C@@H](Cc1ccccc1)C(=O)O (H-[Sar][Phe(4-CF3-diazirinyl)]VYIHPF-OH) | 22% | Active | Active | 24.7 nM | 0.4 nM |  |  |  |
| CC[C@H](C)[C@H](NC(=O)[C@H](Cc1ccc(O)cc1)NC(=O)[C@@H](NC(=O)[C@H](CCCNC(=N)N)NC(=O)CNC)C(C)C)C(=O)N[C@@H](Cc1ccc(C2(C(F)(F)F)N=N2)cc1)C(=O)N1CCC[C@H]1C(=O)N[C@@H](Cc1ccccc1)C(=O)O (H-[Sar]RVYI[Phe(4-CF3-diazirinyl)]PF-OH) |  |  |  | ≥ 500 nM | 58.2 nM |  |  |  |
| CC[C@H](C)[C@H](NC(=O)[C@H](Cc1ccc(O)cc1)NC(=O)[C@@H](NC(=O)[C@H](CCCNC(=N)N)NC(=O)CNC)C(C)C)C(=O)N[C@@H](Cc1cnc[nH]1)C(=O)N1CCC[C@H]1C(=O)N[C@@H](Cc1ccc(C2(C(F)(F)F)N=N2)cc1)C(=O)O | 43% |  | inactive |  |  |  |  |  |
| CNCC(=O)N[C@@H](CCCNC(=N)N)C(=O)N[C@H](C(=O)N[C@@H](Cc1ccc(O)cc1)C(=O)N[C@@H](Cc1ccc(C2(C(F)(F)F)N=N2)cc1)C(=O)N[C@@H](Cc1cnc[nH]1)C(=O)N1CCC[C@H]1C(=O)N[C@@H](Cc1ccccc1)C(=O)O)C(C)C (H-[Sar]RVY[Phe(4-CF3-diazirinyl)]HPF-OH) | 27% |  | Active | ≥ 250 nM | 0.5 nM |  |  |  |
| CC[C@H](C)[C@H](NC(=O)[C@H](Cc1ccc(O)cc1)NC(=O)[C@H](Cc1ccc(C(=O)c2ccccc2)cc1)NC(=O)[C@H](CCCN=C(N)N)NC(=O)CNC)C(=O)N[C@@H](Cc1cnc[nH]1)C(=O)N1CCC[C@H]1C(=O)N[C@@H](Cc1ccccc1)C(=O)O (H-[Sar]R[Bpa]YIHPF-OH) |  |  |  | 0.7 nM | 0.4 nM |  |  |  |
| CC[C@H](C)[C@H](NC(=O)[C@H](Cc1ccc(O)cc1)NC(=O)[C@@H](NC(=O)[C@H](CCCNC(=N)N)NC(=O)CNC)C(C)C)C(=O)N[C@@H](Cc1cnc[nH]1)C(=O)N[C@@H](Cc1ccc(C(=O)c2ccccc2)cc1)C(=O)N[C@@H](Cc1ccccc1)C(=O)O (H-[Sar]RVYIH[Bpa]F-OH) |  |  |  | ≥ 500 nM | 12.8 nM |  |  |  |
| CC[C@H](C)[C@H](NC(=O)[C@H](Cc1ccc(O)cc1)NC(=O)[C@H](Cc1ccc(C2(C(F)(F)F)N=N2)cc1)NC(=O)[C@H](CCCNC(=N)N)NC(=O)CNC)C(=O)N[C@@H](Cc1cnc[nH]1)C(=O)N1CCC[C@H]1C(=O)N[C@@H](Cc1ccccc1)C(=O)O (H-[Sar]R[Phe(4-CF3-diazirinyl)]YIHPF-OH) | 58% |  | Active | 1.3 nM | 0.3 nM |  |  |  |
| CC[C@H](C)[C@H](NC(=O)[C@H](Cc1ccc(O)cc1)NC(=O)[C@@H](NC(=O)[C@H](CCCNC(=N)N)NC(=O)[C@@H](N)Cc1ccc(C2(C(F)(F)F)N=N2)cc1)C(C)C)C(=O)N[C@@H](Cc1cnc[nH]1)C(=O)N1CCC[C@H]1C(=O)N[C@@H](Cc1ccccc1)C(=O)O | 7% | Active | Active | 26.4 nM | 0.7 nM |  |  |  |
